The test system of this assay is NQO1 specific enzyme activity in BEAS-2B cells. The assay is described as follows: BEAS-2B NQO1 MTT assay. Particulars: Homo sapiens, BEAS-2B, 48 h, NQO1 specific enzyme activity induction in BEAS-2B cells, 48 hours; read-out: EC50. It counts as cell-based. Summed up:
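BEAS-2B cells exposed to compound 48 h at 37° C, 5% CO2, then lysed. NQO1 activity read kinetically in lysate with MTT cocktail (absorbance 570 nm, 30 min); Cell Titer Glo run on a lysate aliquot. pEC50 from ΔOD/min versus log concentration, 3-parameter fit.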

Molecules are shown by their SMILES.

What is called EC50 is the concentration that produces a half-maximal response. Consider `CC[C@@H]1CN(C2CCc3ccc(C(CCc4cn(CC)nn4)C(C)(C)C(=O)O)cc32)Cc2cnccc2O1` (stereo partly drawn) [Example 87, 5-(1-Ethyl-1H-1,2,3-triazol-4-yl)-3-(3-((R)-2-ethyl-2,3-dihydropyrido[3,4-f][1,4]oxazepin-4(5H)-yl)-2,3-dihydro-1H-inden-5-yl)-2,2-dimethylpentanoic Acid], for which the EC50 was 10 to 100 nM.

The values are drawn from US10272095B2 (GlaxoSmithKline Intellectual Property Development Limited, priority 2015, dated 2019).
